In US9717717B1, “Methods of treating cancer through the inhibition of USP7 and immune system modulation” (Progenra, Inc., priority 2015, dated 2017):

Legend:
[1] = molecular target: T1, USP7core WT (Homo sapiens, UniProt Q93009); assay: LC-MS detection of covalent adduct with purified USP7core WT; assay type: binding; details: 5 μM USP7core WT, 100 μM compound, room temperature, 4 hrs
T1 construct: 5 μM purified USP7core WT or active site cysteine mutant C223A were incubated with 100 μM Compound 5
T1 sequence (Q93009 214-521 limits assumed): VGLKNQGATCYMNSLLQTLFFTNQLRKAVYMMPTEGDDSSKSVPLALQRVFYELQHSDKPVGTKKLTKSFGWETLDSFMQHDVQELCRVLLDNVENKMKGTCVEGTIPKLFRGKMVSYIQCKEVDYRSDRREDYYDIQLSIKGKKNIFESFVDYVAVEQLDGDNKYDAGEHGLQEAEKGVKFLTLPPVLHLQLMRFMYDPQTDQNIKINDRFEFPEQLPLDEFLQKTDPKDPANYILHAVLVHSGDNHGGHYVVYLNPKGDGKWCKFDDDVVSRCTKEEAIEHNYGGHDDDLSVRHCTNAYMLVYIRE
Experimental: (§1) FIG. 4 provides data showing an example of the covalent irreversible nature of disclosed USP7 inhibitors. 5 μM purified USP7core WT or active site cysteine mutant C223A were incubated with 100 μM Compound 5 or DMSO at room temperature for 4 hrs, and then the protein/compound reaction products were mixed with equal volume of 0.1% Trifluoroacetic acid (TFA) before LC-MS injection. The samples were analyzed by reverse-phase liquid chromatography coupled to UV and MS detection (Agilent, 6220 Accurate-Mass Time-of-Flight (TOF) LC/MS). […] FIG. 4 provides data showing an example of the covalent irreversible nature of disclosed USP7 inhibitors. 5 μM purified USP7core WT or active site cysteine mutant C223A were incubated with 100 μM Compound 5 or DMSO at room temperature for 4 hrs, and then the protein/compound reaction products were mixed with equal volume of 0.1% Trifluoroacetic acid (TFA) before LC-MS injection. The samples were analyzed by reverse-phase liquid chromatography coupled to UV and MS detection (Agilent, 6220 Accurate-Mass Time-of-Flight (TOF) LC/MS).

[2] = molecular target: T2, USP7 (Homo sapiens, UniProt Q93009); assay: DUB activity of USP7 immunoprecipitated from treated Jurkat cells (Ub-EKL assay); assay type: cell-based; details: for USP7 catalytic activity returned after washout: Jurkat cells exposed for 2 hours
T2 construct: endogenous in cells; host or cells: Jurkat
T2 sequence (Q93009 whole entry): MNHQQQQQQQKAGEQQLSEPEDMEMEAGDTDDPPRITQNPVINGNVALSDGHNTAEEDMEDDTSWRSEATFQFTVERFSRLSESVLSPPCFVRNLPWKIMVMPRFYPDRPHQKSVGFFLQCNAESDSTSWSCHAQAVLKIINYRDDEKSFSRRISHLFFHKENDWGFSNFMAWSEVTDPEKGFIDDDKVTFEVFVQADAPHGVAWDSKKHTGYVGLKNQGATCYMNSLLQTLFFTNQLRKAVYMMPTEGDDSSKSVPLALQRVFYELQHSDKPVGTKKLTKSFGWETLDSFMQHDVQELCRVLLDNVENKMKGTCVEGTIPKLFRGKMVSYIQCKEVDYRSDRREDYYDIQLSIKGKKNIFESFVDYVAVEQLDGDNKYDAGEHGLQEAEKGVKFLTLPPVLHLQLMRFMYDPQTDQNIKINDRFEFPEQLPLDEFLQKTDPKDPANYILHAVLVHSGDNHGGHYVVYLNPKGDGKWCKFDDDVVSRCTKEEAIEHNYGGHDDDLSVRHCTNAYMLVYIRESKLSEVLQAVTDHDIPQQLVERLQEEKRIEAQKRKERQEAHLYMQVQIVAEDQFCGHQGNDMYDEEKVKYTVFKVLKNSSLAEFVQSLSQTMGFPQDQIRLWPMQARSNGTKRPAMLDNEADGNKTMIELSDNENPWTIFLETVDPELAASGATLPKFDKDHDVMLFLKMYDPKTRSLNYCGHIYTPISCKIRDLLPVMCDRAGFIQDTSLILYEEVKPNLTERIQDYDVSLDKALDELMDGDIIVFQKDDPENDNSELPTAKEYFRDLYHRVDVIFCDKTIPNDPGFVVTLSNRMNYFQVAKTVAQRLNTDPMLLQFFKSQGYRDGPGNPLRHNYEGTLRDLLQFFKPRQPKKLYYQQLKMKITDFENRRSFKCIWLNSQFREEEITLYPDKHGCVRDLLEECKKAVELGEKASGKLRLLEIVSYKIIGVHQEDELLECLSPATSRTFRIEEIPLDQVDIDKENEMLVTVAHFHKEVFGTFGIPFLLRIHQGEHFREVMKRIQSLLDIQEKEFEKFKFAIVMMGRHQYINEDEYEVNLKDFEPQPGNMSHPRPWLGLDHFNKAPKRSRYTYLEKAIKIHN
Experimental: FIG. 5A-FIG. 5C graphically illustrate that the disclosed USP7 inhibitors of the invention are irreversible inhibitors. Jurkat cells were treated with 10 μM USP7i for indicated time period (FIG. 5A) or pulse treated for 2 h with 10 μM compound 5 (FIG. 5B), washed and incubated for the indicated time period followed by DUB activity measurement of immunoprecipitated USP7 as well as total cell lysate (FIG. 5C) using Ub-EKL assay as described previously (U.S. Pat. No. 8,680,139). A portion of the immunoprecipitated USP7 is separated on 10% SDS-PAGE and immunoblotted with anti-USP7 antibody to detect the level of USP7 protein (shown at the top of graphs in FIG. 5A and FIG. 5B). […] Jurkat cells were exposed to Compound 5 for 2 hours and the compounds were washed away followed by incubation for various time points. Cells were harvested, lysed and their USP7 immunoprecipitated and washed with buffer. […] Jurkat cells were incubated with an exemplary compound of the present invention (e.g., compound 5), washed, and incubated for an additional 0-96 h. USP7 was immunoprecipitated from lysates and USP7 activity measured. […] Total cell deubiquitinase activity can be performed to determine selectivity of these compounds (FIG. 5C). These experiments delineate a simple, powerful biomarker for determining the dose-efficacy relationship in the pre-clinical/clinical evaluation of irreversible USP7 inhibitors. Inhibitors were also tested in cells for effects on various PD markers, including two major USP7 substrates, HDM2 and UHRF1.

[3] = test system: TC1 lung tumor; assay: TC1 flank tumor model in immunocompetent mice; assay type: in vivo, B6 mice
Experimental: Inhibition was statistically significant at the p<0.05 level (**).
USP7 targeting inhibits flank tumor growth via a Treg-dependent mechanism in immunocompetent mice (FIGS. 8A and 8B). Eight week-old B6 mice were injected with 5×10^5 TC1 tumor cells, and 1 week later, when tumors had reached ˜100 mm^3, mice were implanted with 14 day Alzet pumps containing vehicle or USP7i at doses 0.6 mg/kg, 1 mg/kg, and 6 mg/kg. Tumor growth was measured twice weekly for 2 weeks, and the study continued for an additional time period without further dosing. At sacrifice, spleens, draining lymph nodes (DLN), and tumors can be assessed by flow cytometry, histology, immunohistology and qPCR. Such studies can be performed in both immunocompetent and immunodeficient mice.

[4] = test system: HDM2; assay: Immunoblot of HDM2 level in treated Jurkat cells; assay type: cell-based; details: immunoblot (FIG. 6)
Experimental: (§2) FIG. 6 graphically illustrates a decrease in USP7 oncogenic substrates HDM2 and UHRF1 levels in Jurkat cells treated with the USP7i compound 5. 20 μg total cell lysates from each samples were separated on 10% SDS-PAGE and immunoblotted with antibodies against HDM2, UHRF1 and Actin (loading control).
(§3) Jurkat cells were incubated with an exemplary compound of the present invention (e.g., compound 5), washed, and incubated for an additional 0-96 h. USP7 was immunoprecipitated from lysates and USP7 activity measured. […] Total cell deubiquitinase activity can be performed to determine selectivity of these compounds (FIG. 5C). These experiments delineate a simple, powerful biomarker for determining the dose-efficacy relationship in the pre-clinical/clinical evaluation of irreversible USP7 inhibitors. Inhibitors were also tested in cells for effects on various PD markers, including two major USP7 substrates, HDM2 and UHRF1.

[5] = test system: UHRF1; assay: Immunoblot of UHRF1 level in treated Jurkat cells; assay type: cell-based; details: immunoblot (FIG. 6)
Experimental: as §2, §3

[6] = molecular target: USP7 core C223A (Homo sapiens, UniProt Q93009, C223A); assay: LC-MS detection of covalent adduct with USP7 core active site cysteine mutant C223A; assay type: binding; details: 5 μM C223A, 100 μM compound, room temperature, 4 hrs
Chain of USP7 core C223A (Q93009 214-521 C223A limits assumed): as the sequence (Q93009 214-521 limits assumed) above, with C10A counted along it
Experimental: as §1

[7] = test system: Murine Tregs; assay: 3-day Treg suppression assay (CFSE-labeled T effector cell proliferation, FACS); assay type: cell-based; details: Tregs pre-treated with 10 μM for 2 h, washed (FIG. 7)
Experimental: FIG. 7 graphically illustrates the inhibition of Treg functions after treatment with USP7 inhibitor compound 5. Murine Tregs were pre-treated with compound 5 for 2 hrs, washed and incubated with carboxyfluorescein succinimidyl ester (CFSE) labeled T effector cells at varying concentrations for 3 days. T effector cell proliferation was monitored using FACS analysis. Percentage proliferation is plotted using Graphpad prism.
Initial in vitro determination of the effect of compounds on the Treg-Teff system was performed by co-culturing drug pretreated Treg cell with Teff cells for three days and determining the Teff proliferation by flow cytometry. The compounds that were active in enhancing Teff growth were then examined for their effect on biomarkers. The most interesting compounds were tested for their effect on tumor growth in immune competent mice inoculated with lung cancer cells subcutaneously.
3-day Treg suppression assay in which isolated Tregs were treated with DMSO or experimental compound, washed and added to wells in which T cell proliferation was induced by CD3 mAb plus APC; % proliferation of CFSE-labeled conventional (Tcon) cells is shown in blue for each Treg:Tcon ratio. […] Flow cytometry confirmed marked or moderate down-regulation of Foxp3 expression by Treg cells exposed to potential inhibitor for 2 hrs. […]

[8] = pooled analysis of 14 phase I-III studies, various doses; cited from earlier work

covalent adduct formation with USP7 core [1] | USP7 catalytic activity returned after washout ([2]; washed, after 48 hours) | USP7 catalytic activity returned after washout ([2]; washed, after 72 hours) | USP7 activity after pulse treatment ([2]; Jurkat cells, 10 μM for 2 h, washed, even after 72 h (FIG. 5B)) | covalent adduct formation with USP7 core C223A [6] | Compound | catalytic activity of isolated USP7 ([2]; Jurkat cells, incubation with inhibitor for 1 h (FIG. 5A)) | TC1 lung tumor growth ([3]; Day 16, statistically significant p<0.05 (FIG. 8A, 8B)) | tumor regression ([3]; TC1 tumors (FIG. 8B)) | HDM2 level [4] | UHRF1 level [5] | Treg suppressive functions [7] | patients with immune-related adverse effects [8]
formed a covalent adduct | about 55% | 68% | prolonged inhibition of USP7 activity | failed to form an adduct | CS(=O)(=O)c1cccc(NC(=O)c2cc([N+](=O)[O-])c(Sc3c(Cl)cncc3Cl)s2)c1 [Compound 5, 5-[(3,5-dichloropyridin-4-yl)sulfanyl]-N-[3-(methylsulfonyl)phenyl]-4-nitrothiophene-2-carboxamide] | significant inhibition of catalytic activity | inhibition of TC1 lung tumor growth | complete tumor regression in several mice | decrease | decrease | marked impairment of Treg suppressive functions | –
– | – | – | – | – | ipilimumab | – | – | – | – | – | – | 64%
